# Measurements: US20230093099A1, “COMPOUNDS AND METHODS OF TREATING CANCERS” (CULLGEN (SHANGHAI), INC., priority 2019, published 2023)
# System: RS4;11 cells
# Assay: Cell viability assay (CellTiter-Glo) in RS4;11 cells
# Assay type: cell-based
# Settings: Homo sapiens, 72 h; RS4;11 ALL cells treated for three days; read-out: cell viability inhibition IC50
# How it was run: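 Three-day compound treatment of RS4;11 ALL cells (5000/well, 3-fold dilution series of 8 or 12 points), with IC50 from a nonlinear least-squares fit to CellTiter-Glo viability data.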
row,SMILES,IC50
1,CS(=O)(=O)c1ccc(-c2cccc3nc(Nc4ccc(N5CCN(C(=O)CCNc6ccc7c(c6)C(=O)N(C6CCC(=O)NC6=O)C7=O)CC5)cc4)nn23)cc1 (stereo not drawn) [JA-202],< 100 nM
2,"O=C1CCC(N2C(=O)c3ccc(NCCCCC(=O)N4CCC(n5cc(-c6cnc7cccc(-c8cc(F)c(CN9CCOCC9)c(F)c8)c7n6)cn5)CC4)cc3C2=O)C(=O)N1 (stereo not drawn) [JA-182, 5-((5-(4-(4-(8-(3,5-difluoro-4-(morpholinomethyl)phenyl)quinoxalin-2-yl)-1H-pyrazol-1-yl)piperidin-1-yl)-5-oxopentyl)amino)-2-(2,6-dioxopiperidin-3-yl)isoindoline-1,3-dione]",< 100 nM

# Same assay, conditions: Homo sapiens, 72 h; RS4;11 cells; cell viability, 3 days, CellTiter-Glo; read-out: IC50
row,SMILES,IC50
1,"Cc1ncsc1-c1ccc(CNC(=O)[C@@H]2C[C@@H](O)CN2C(=O)[C@@H](NC(=O)COCCNC(=O)CN2CCC(n3cc(-c4cnc5cccc(-c6cc(F)c(CN7CCOCC7)c(F)c6)c5n4)cn3)CC2)C(C)(C)C)cc1 [JA-153, (2S,4R)-1-((S)-2-(2-(2-(2-(4-(4-(8-(3,5-Difluoro-4-(morpholinomethyl)phenyl)quinoxalin-2-yl)-1H-pyrazol-1-yl)piperidin-1-yl)acetamido)ethoxy)acetamido)-3,3-dimethylbutanoyl)-4-hydroxy-N-(4-(4-methylthiazol-5-yl)benzyl)pyrrolidine-2-carboxamide]",> 10000 nM
2,"O=C1CCC(N2Cc3ccc(NCCCCCC(=O)N4CCC(n5cc(-c6cnc7cccc(-c8cc(F)c(CN9CCOCC9)c(F)c8)c7n6)cn5)CC4)cc3C2=O)C(=O)N1 (stereo not drawn) [JA-272, 3-(6-((6-(4-(4-(8-(3,5-Difluoro-4-(morpholinomethyl)phenyl)quinoxalin-2-yl)-1H-pyrazol-1-yl)piperidin-1-yl)-6-oxohexyl)amino)-1-oxoisoindolin-2-yl)piperidine-2,6-dione]",520 nM
3,"Cc1cnc(Nc2ccc(N3CCN(CC(=O)NCCCCCCC(=O)N[C@H](C(=O)N4C[C@H](O)C[C@H]4C(=O)NCc4ccc(-c5scnc5C)cc4)C(C)(C)C)CC3)cc2)nc1Nc1cccc(S(=O)(=O)NC(C)(C)C)c1 [JA-102, (2S,4R)-1-((S)-2-(7-(2-(4-(4-((4-((3-(N-(tert-Butyl)sulfamoyl)phenyl)amino)-5-methylpyrimidin-2-yl)amino)phenyl)piperazin-1-yl)acetamido)heptanamido)-3,3-dimethylbutanoyl)-4-hydroxy-N-(4-(4-methylthiazol-5-yl)benzyl)pyrrolidine-2-carboxamide]",> 10000 nM
4,"O=C1CCC(N2C(=O)c3cccc(NCCOCCOCCOCCC(=O)N4CCC(n5cc(-c6cnc7cccc(-c8cc(F)c(CN9CCOCC9)c(F)c8)c7n6)cn5)CC4)c3C2=O)C(=O)N1 (stereo not drawn) [JA-049, 4-[2-[2-[2-[3-[4-[4-[8-[3,5-Difluoro-4-(morpholinomethyl)phenyl]quinoxalin-2-yl]pyrazol-1-yl]-1-piperidyl]-3-oxo-propoxy]ethoxy]ethoxy]ethylamino]-2-(2,6-dioxo-3-piperidyl)isoindoline-1,3-dione]",1270 nM
5,"Cc1cnc(Nc2ccc(N3CCN(C(=O)CCOCCOCCNc4cccc5c4C(=O)N(C4CCC(=O)NC4=O)C5=O)CC3)cc2)nc1Nc1cccc(S(=O)(=O)NC(C)(C)C)c1 (stereo not drawn) [JA-018, N-(tert-Butyl)-3-((2-((4-(4-(3-(2-(2-((2-(2,6-dioxopiperidin-3-yl)-1,3-dioxoisoindolin-4-yl)amino)ethoxy)ethoxy)propanoyl)piperazin-1-yl)phenyl)amino)-5-methylpyrimidin-4-yl)amino)benzenesulfonamide]",> 10000 nM
6,CS(=O)(=O)c1ccc(-c2cccc3nc(Nc4ccc(N5CCN(C(=O)CCNc6ccc7c(c6)C(=O)N(C6CCC(=O)NC6=O)C7=O)CC5)cc4)nn23)cc1 (stereo not drawn) [JA-202],108 nM
7,"O=C1CCC(N2C(=O)c3ccc(NCCCCC(=O)N4CCC(n5cc(-c6cnc7cccc(-c8cc(F)c(CN9CCOCC9)c(F)c8)c7n6)cn5)CC4)cc3C2=O)C(=O)N1 (stereo not drawn) [JA-182, 5-((5-(4-(4-(8-(3,5-difluoro-4-(morpholinomethyl)phenyl)quinoxalin-2-yl)-1H-pyrazol-1-yl)piperidin-1-yl)-5-oxopentyl)amino)-2-(2,6-dioxopiperidin-3-yl)isoindoline-1,3-dione]",13.8 nM
8,"O=C(CN1CCC(n2cc(-c3cnc4cccc(-c5cc(F)c(CN6CCOCC6)c(F)c5)c4n3)cn2)CC1)NCCCNc1ccc2c(c1)C(=O)N(C1CCC(=O)NC1=O)C2=O (stereo not drawn) [JA-175, 2-(4-(4-(8-(3,5-Difluoro-4-(morpholinomethyl)phenyl)quinoxalin-2-yl)-1H-pyrazol-1-yl)piperidin-1-yl)-N-(3-((2-(2,6-dioxopiperidin-3-yl)-1,3-dioxoisoindolin-5-yl)amino)propyl)acetamide]",128 nM
9,"Cc1cnc(Nc2ccc(N3CCN(CC(=O)NCCOCCOCCOCCNc4cccc5c4C(=O)N(C4CCC(=O)NC4=O)C5=O)CC3)cc2)nc1Nc1cccc(S(=O)(=O)NC(C)(C)C)c1 (stereo not drawn) [JA-088, 2-(4-(4-((4-((3-(N-(tert-Butyl)sulfamoyl)phenyl)amino)-5-methylpyrimidin-2-yl)amino)phenyl)piperazin-1-yl)-N-(2-(2-(2-(2-((2-(2,6-dioxopiperidin-3-yl)-1,3-dioxoisoindolin-4-yl)amino)ethoxy)ethoxy)ethoxy)ethyl)acetamide]",369 nM
10,"CS(=O)(=O)c1ccc(-c2cccc3nc(Nc4ccc(N5CCN(C(=O)CCNc6cccc7c6C(=O)N(C6CCC(=O)NC6=O)C7=O)CC5)cc4)nn23)cc1 (stereo not drawn) [JA-012, 2-(2,6-Dioxo-piperidin-3-yl)-4-[3-(4-{4-[5-(4-methanesulfonyl-phenyl)-[1,2,4]triazolo[1,5-a]pyridin-2-ylamino]-phenyl}-piperazin-1-yl)-3-oxo-propylamino]-isoindole-1,3-dione]",4700 nM
11,"Cc1ncsc1-c1ccc(CNC(=O)[C@@H]2C[C@@H](O)CN2C(=O)[C@@H](NC(=O)CCOCCOCCOCCC(=O)N2CCN(c3ccc(Nc4nc5cccc(-c6ccc(S(C)(=O)=O)cc6)n5n4)cc3)CC2)C(C)(C)C)cc1 [JA-068, (2S,4R)-1-((S)-2-(tert-Butyl)-16-(4-(4-((5-(4-(methylsulfonyl)phenyl)-[1,2,4]triazolo[1,5-a]pyridin-2-yl)amino)phenyl)piperazin-1-yl)-4,16-dioxo-7,10,13-trioxa-3-azahexadecanoyl)-4-hydroxy-N-(4-(4-methylthiazol-5-yl)benzyl)pyrrolidine-2-carboxamide]",> 10000 nM
12,"Cc1cnc(Nc2ccc(N3CCN(C(=O)CCOCCOCCOCCOCCNc4cccc5c4C(=O)N(C4CCC(=O)NC4=O)C5=O)CC3)cc2)nc1Nc1cccc(S(=O)(=O)NC(C)(C)C)c1 (stereo not drawn) [JA-020, N-(tert-Butyl)-3-((2-((4-(4-(1-((2-(2,6-dioxopiperidin-3-yl)-1,3-dioxoisoindolin-4-yl)amino)-3,6,9,12-tetraoxapentadecan-15-oyl)piperazin-1-yl)phenyl)amino)-5-methylpyrimidin-4-yl)amino)benzenesulfonamide]",633 nM
13,"Cn1c(=O)n(C2CCC(=O)NC2=O)c2ccc(NCCCCCCC(=O)N3CCC(n4cc(-c5cnc6cccc(-c7cc(F)c(CN8CCOCC8)c(F)c7)c6n5)cn4)CC3)cc21 (stereo not drawn) [JA-289, 3-(5-((7-(4-(4-(8-(3,5-Difluoro-4-(morpholinomethyl)phenyl)quinoxalin-2-yl)-1H-pyrazol-1-yl)piperidin-1-yl)-7-oxoheptyl)amino)-3-methyl-2-oxo-2,3-dihydro-1H-benzo[d]imidazol-1-yl)piperidine-2,6-dione]",> 500 nM
14,"Cc1ncsc1-c1ccc(CNC(=O)[C@@H]2C[C@@H](O)CN2C(=O)[C@@H](NC(=O)CCCCCCCCNC(=O)CN2CCN(c3ccc(Nc4nc5cccc(-c6ccc(S(C)(=O)=O)cc6)n5n4)cc3)CC2)C(C)(C)C)cc1 [JA-121, (2S,4R)-1-((S)-3,3-Dimethyl-2-(9-(2-(4-(4-((5-(4-(methylsulfonyl)phenyl)-[1,2,4]triazolo[1,5-a]pyridin-2-yl)amino)phenyl)piperazin-1-yl)acetamido)nonanamido)butanoyl)-4-hydroxy-N-(4-(4-methylthiazol-5-yl)benzyl)pyrrolidine-2-carboxamide]",> 10000 nM
15,"Cc1cnc(Nc2ccc(N3CCN(CC(=O)NCCOCCOCCOCC(=O)N[C@H](C(=O)N4C[C@H](O)C[C@H]4C(=O)NCc4ccc(-c5scnc5C)cc4)C(C)(C)C)CC3)cc2)nc1Nc1cccc(S(=O)(=O)NC(C)(C)C)c1 [JA-220, (2S,4R)-1-((S)-2-(tert-butyl)-17-(4-(4-((4-((3-(N-(tert-butyl)sulfamoyl)phenyl)amino)-5-methylpyrimidin-2-yl)amino)phenyl)piperazin-1-yl)-4,16-dioxo-6,9,12-trioxa-3,15-diazaheptadecanoyl)-4-hydroxy-N-(4-(4-methylthiazol-5-yl)benzyl)pyrrolidine-2-carboxamide]",> 10000 nM
16,"Cc1cnc(Nc2ccc(N3CCN(C(=O)COCC(=O)N[C@H](C(=O)N4C[C@H](O)C[C@H]4C(=O)NCc4ccc(-c5scnc5C)cc4)C(C)(C)C)CC3)cc2)nc1Nc1cccc(S(=O)(=O)NC(C)(C)C)c1 [JA-030, (2S,4R)-1-((S)-2-(2-(2-(4-(4-((4-((3-(N-(tert-Butyl)sulfamoyl)phenyl)amino)-5-methylpyrimidin-2-yl)amino)phenyl)piperazin-1-yl)-2-oxoethoxy)acetamido)-3,3-dimethylbutanoyl)-4-hydroxy-N-(4-(4-methylthiazol-5-yl)benzyl)pyrrolidine-2-carboxamide]",> 10000 nM
17,"Cc1ncsc1-c1ccc(CNC(=O)[C@@H]2C[C@@H](O)CN2C(=O)[C@@H](NC(=O)CCNC(=O)CN2CCN(c3ccc(Nc4nc5cccc(-c6ccc(S(C)(=O)=O)cc6)n5n4)cc3)CC2)C(C)(C)C)cc1 [JA-119, (2S,4R)-1-((S)-3,3-Dimethyl-2-(3-(2-(4-(4-((5-(4-(methylsulfonyl)phenyl)-[1,2,4]triazolo[1,5-a]pyridin-2-yl)amino)phenyl)piperazin-1-yl)acetamido)propanamido)butanoyl)-4-hydroxy-N-(4-(4-methylthiazol-5-yl)benzyl)pyrrolidine-2-carboxamide]",> 10000 nM
18,"CS(=O)(=O)c1ccc(-c2cccc3nc(Nc4ccc(N5CCN(C(=O)CCCCCOc6ccc7c(c6)C(=O)N(C6CCC(=O)NC6=O)C7=O)CC5)cc4)nn23)cc1 (stereo not drawn) [JA-255, 2-(2,6-Dioxopiperidin-3-yl)-5-((6-(4-(4-((5-(4-(methylsulfonyl)phenyl)-[1,2,4]triazolo[1,5-a]pyridin-2-yl)amino)phenyl)piperazin-1-yl)-6-oxohexyl)oxy)isoindoline-1,3-dione]",259 nM
19,"CS(=O)(=O)c1ccc(-c2cccc3nc(Nc4ccc(N5CCN(CC(=O)NCCOCCOCCOCCOCCNc6ccc7c(c6)C(=O)N(C6CCC(=O)NC6=O)C7=O)CC5)cc4)nn23)cc1 (stereo not drawn) [JA-206, N-(14-((2-(2,6-Dioxopiperidin-3-yl)-1,3-dioxoisoindolin-5-yl)amino)-3,6,9,12-tetraoxatetradecyl)-2-(4-(4-((5-(4-(methylsulfonyl)phenyl)-[1,2,4]triazolo[1,5-a]pyridin-2-yl)amino)phenyl)piperazin-1-yl)acetamide]",> 10000 nM
